This note sets out measurements from PMC13087548, “The Use of DeepQSAR Models for the Discovery of Peptides With Enhanced Antimicrobial and Antibiofilm Potential” (Molecular Informatics, 2026).

Data set [1] relates to methicillin‐resistant Staphylococcus aureus (MRSA). As to conditions: read-out: IC50 antimicrobial (planktonic); MRSA in 10% tryptic soy broth + 0.1% glucose, overnight 37°C, growth by OD600; peptide array samples; nplr fit. The procedure:
(§1) Peptide arrays on cellulose membranes were made by Kinexus Bioinformatics Corporation (Vancouver, BC, Canada) and were obtained as cleaved free peptide associated with the punched‐out spot of the cellulose membrane. Stock solutions of the peptide array samples were prepared by dissolving the free peptide in 200 µL of endotoxin‐free sterile water, incubating at room temperature for ~ 1 h, and then transferring the resulting peptide solution to a sterile microfuge tube for subsequent antimicrobial activity assays. The concentration of the stock peptide array samples was determined by measuring the absorbance at 280 nm of the solution (in duplicate) on a BioTek Epoch Microplate Spectrophotometer using the Take3TM Multi‐Volume Plate. A theoretical extinction coefficient of each peptide was determined based on the number of Trp and Try residues1 in the peptide sequence according to the formula: (#Trp) × 5500 M^− ^1 cm^− ^1 + (#Tyr) × 1490 M^− ^1 cm^− ^1, and the concentration of the peptide in solution was calculated according to the Beer–Lambert law. Any Cys residues within the peptide samples were assumed not to be present in a disulfide bond, so their contribution to the extinction coefficient at 280 nm was ignored.
(§2) Peptides were synthesized on peptide arrays and tested as described previously. Briefly, the antimicrobial activity and biofilm inhibition activity of the peptide array samples were assessed against methicillin‐resistant Staphylococcus aureus (MRSA). Briefly, twofold serial dilutions of the peptide array sample (10 μL final volume) were prepared in 96‐well plates and then 90 μL of a 1:100 dilution of an overnight culture of MRSA diluted in 10% tryptic soy broth supplemented with 0.1% glucose was added to each well and the plates were incubated overnight at 37°C. The following day, bacterial growth was quantified by measuring the optical density at 600 nm (OD600) of each sample well while the amount of biofilm was quantified by rinsing the wells of the plate with distilled water and staining the adhered biomass with 0.1% crystal violet solution. The amount of adhered biomass was quantified by recording the absorbance at 595 nm (A595). Dose–response curves were drawn for each peptide based on the bacterial growth (OD600) or biofilm inhibition (A595) and normalizing the percent of peptide inhibition relative to untreated bacteria (100% growth) or sterile media (0% growth). The concentration of peptide required to inhibit 50% of bacterial or biofilm growth (IC50) was calculated by nonlinear regression fit of the dose–response curves using the N‐Parameter Logistic Regression (nplr) package.

The subject of data set [2] is human red blood cells. Nature of the data set: Hemolysis assay. Type of data set: cell-based. The text has this: (§3) To evaluate the safety profiles of predicted peptides, we conducted hemolysis and PBMC cytotoxicity assays on three representative candidates (J20: LKIKVHIYRMKR, J28: FRVCYRGICYRR, J39: […]). These peptides were randomly selected from the top 22 peptides predicted by our classification model to outperform the reference peptide IDR‐1018 in antibiofilm activity. All three peptides were synthesized at > 95% purity and tested in standard in vitro assays.

Data set [3] relates to human PBMCs. Kind of data set: PBMC cytotoxicity assay. The format is cell-based.
Text: as §3

Data set [4] has as its system methicillin‐resistant Staphylococcus aureus (MRSA) biofilm. As to conditions: read-out: IC50 Biofilm; MRSA in 10% tryptic soy broth + 0.1% glucose, overnight 37°C, adhered biomass stained with 0.1% crystal violet, A595; peptide array samples; nplr fit. The procedure: as §1, §2
The subject of data set [5] is biofilm. Nature of the data set: Minimum biofilm inhibitory concentration (MBIC). To be noted: peptides > 95% purity; Table S1. Type of data set: cell-based.

Like-named read-outs stand apart in the source and are kept apart here. Ends that are not written are not given here. Peptide text beside a SMILES is read from it. Bounds are passed on as bounds.

What is called IC50 is the point on the concentration scale where inhibition reaches its midpoint. Take GLKSFARVLKKI-NH2 [compound 33]: in data set [1], the IC50 came out at 1150 nM.
The same measure, in the same setting: next, RRRAKGRIRLIV-NH2 [compound 62]: 890 nM.
With `CC[C@H](C)[C@H](NC(=O)CNC(=O)[C@H](CCCNC(=N)N)NC(=O)[C@H](Cc1ccc(O)cc1)NC(=O)[C@H](CS)NC(=O)[C@@H](NC(=O)[C@H](CCCNC(=N)N)NC(=O)[C@@H](N)Cc1ccccc1)C(C)C)C(=O)N[C@@H](CS)C(=O)N[C@@H](Cc1ccc(O)cc1)C(=O)N[C@@H](CCCNC(=N)N)C(=O)N[C@@H](CCCNC(=N)N)C(N)=O` [compound 28] (H-FRVCYRGICYRR-NH2; N-terminus assumed), the “Hemolysis IC50” value in data set [2] (red cells of human) was above 250 µg/mL. Besides, the “PBMC IC50 (cytotoxicity)” value in data set [3] was above 250 µg/mL.
RVVRRKGRIYIL-NH2 [compound 81]: the IC50 in data set [4] is 440 nM.
Same read-out and setting: the result for LFKFLGKKVLKT-NH2 [compound 9] reads 470 nM.
Take RALKKIIKRLCR-NH2 [compound 86]: the IC50 in data set [4] came out at 380 nM; in data set [1], 710 nM.
Regarding RARGRKRLVVTI-NH2 [compound 40], the IC50 in data set [4] was 300 nM.
Take LKIKVHIYRMKR-NH2 [compound 20]: the IC50 in data set [4] came out at 350 nM. The “Hemolysis IC50” value in data set [2] (red cells of human) is above 250 µg/mL. Moreover, in data set [3], the “PBMC IC50 (cytotoxicity)” value was 166.1 µg/mL. For the same compound, in data set [5], the “Biofilm-inhibitory concentration (MBIC)” value was 1 to 4 µg/mL.
For the compound RGFVRLKKWFNI-NH2 [compound 39], the IC50 in data set [4] is 230 nM. Besides, the “Hemolysis IC50” value in data set [2] (human erythrocytes, concentration range 1–256 μg/mL, peptides > 95% purity) was above 250 µg/mL. In data set [3] (human PBMCs, peptides > 95% purity), the “PBMC IC50 (cytotoxicity)” value is above 250 µg/mL. Also, the “Biofilm-inhibitory concentration (MBIC)” value in data set [5] is 1 to 4 µg/mL.
Regarding “VRLIVAVRIWRR-NH2 [IDR‐1018, reference compound]”, the results for the IC50 in data set [4] and in data set [1] were 1420 nM and 1730 nM, respectively.
On to RLHGFLIRMRTR-NH2 [compound 44], for which the IC50 in data set [1] stood at 1190 nM.
WKKKGRMRWKWI-NH2 [compound 10]: the IC50 in data set [4] is 270 nM.
Still for that read-out and setting: next, KLVRRKGRLYVI-NH2 [compound 50]: 400 nM.
